Measured values published in US6537965B1, “Amino-terminal modified parathyroid hormone (PTH) analogs” (The General Hospital Corporation, priority 1998, dated 2003).
pEC50: −log10 of the molar value. Ends that are not written are not given here. Peptide text beside a SMILES is read from it. * marks the point of attachment. Propionyl = CCC(=O)*

Assays:
Format in all cases: cell-based
[1] = target: T1, hPTH-1 receptors (Homo sapiens, UniProt Q03431); test: cAMP accumulation (adenylyl cyclase activation) in HKRK C53 cells; design: expressed in transfected cells; details: for cyclic AMP accumulation, efficacy compared with native hPTH(1-34)NH2: HKRK C53 cells, about 150,000 hPTH-1 receptors per cell, 10^-9M and 10^-7M peptide (FIG. 1); for reduction of AC activity relative to hPTH(1-34): via the human PTH-1 receptor, clonal LLC-PK1 cells
T1 sequence (Q03431 27-593): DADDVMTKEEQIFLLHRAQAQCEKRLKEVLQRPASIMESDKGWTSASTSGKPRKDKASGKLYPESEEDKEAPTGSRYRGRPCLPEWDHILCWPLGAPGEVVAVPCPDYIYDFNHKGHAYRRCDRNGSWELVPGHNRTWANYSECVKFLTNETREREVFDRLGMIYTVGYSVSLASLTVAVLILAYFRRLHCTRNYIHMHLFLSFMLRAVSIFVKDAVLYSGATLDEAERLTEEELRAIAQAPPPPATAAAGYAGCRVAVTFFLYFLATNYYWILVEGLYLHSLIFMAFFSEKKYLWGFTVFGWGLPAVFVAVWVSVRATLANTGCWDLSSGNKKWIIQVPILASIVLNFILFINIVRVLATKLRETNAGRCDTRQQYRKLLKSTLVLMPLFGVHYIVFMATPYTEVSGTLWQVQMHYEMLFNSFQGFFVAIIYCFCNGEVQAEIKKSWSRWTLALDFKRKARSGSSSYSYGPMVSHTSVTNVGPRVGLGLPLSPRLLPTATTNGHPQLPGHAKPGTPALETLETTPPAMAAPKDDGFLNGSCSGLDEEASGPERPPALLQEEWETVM
Source text: (§1) The following cell lines were used in these studies. HKRK C53 subclones of LLC-PKI porcine renal epithelial cells which stably express human PTH-1 receptors (150,000 receptors/cell). SaOS-2 cells are transformed human osteosarcoma cells which express relatively few (10,000-20,000 per cell) human PTH-1 receptors. HPR2-7 cells are subclones of LLC-PK1 which express approximately 250,000 recombinant human PTH-2 receptors per cell. […] The HPR2-27 and HPR2-22 cell lines were created in the same fashion as the HKRK cells but employing instead type 2 PTH receptor cDNA using the transfection technique of (Bringhurst, F. R., et al., Endocrinology 132(5):2090-2098 (1993); Guo, J., et al., Endocrinology 136(9):3884-3891 (1995)).
(§2) Intracellular cAMP accumulation, PLC activation and PTHR binding affinity were measured as previously reported (Bringhurst, F. R., et al., Endocrinology 132(5):2090-2098 (1993); Guo, J., et al., Endocrinology 136(9):3884-3891 (1995)). Intracellular cAMP accumulation was measured in extracts of cells that were exposed to human PTH peptides in the presence of isobutylmethyxanthine (IBMX, 1 mM) at 37° C. for 15 min. After terminating the reactions by aspiration and freezing in liquid nitrogen, cell monolayers were extracted with 50 mM HCl and cAMP was measured using a radioimmunoassay kit (Dupont-New England Nuclear, Boston, Mass.).

[2] = target: T1, hPTH-1 receptors; test: cAMP measurements in SaOS-2 cells; design: expressed in transfected cells; details: SaOS-2 cells, 10,000-20,000 human PTH-1 receptors per cell; up to 1 uM (FIG. 2)
Source text: (§3) The following cell lines were used in these studies. HKRK C53 subclones of LLC-PKI porcine renal epithelial cells which stably express human PTH-1 receptors (150,000 receptors/cell). SaOS-2 cells are transformed human osteosarcoma cells which express relatively few (10,000-20,000 per cell) human PTH-1 receptors. HPR2-7 cells are subclones of LLC-PK1 which express approximately 250,000 recombinant human PTH-2 receptors per cell. HKRK-B7 cells are subclones of LLC-PK which stably express approximately 1 million hPTH-1 receptors per cell. HPR2-22 cells are subclones of LLC-PK1 which express 1.5 million recombinant hPTH-2 receptors per cell. The HPR2-27 and HPR2-22 cell lines were created in the same fashion as the HKRK cells but employing instead type 2 PTH receptor cDNA using the transfection technique of (Bringhurst, F. R., et al., Endocrinology 132(5):2090-2098 (1993); Guo, J., et al., Endocrinology 136(9):3884-3891 (1995)).
as §2

[3] = target: T1, hPTH-1 receptors; test: phospholipase C (PLC) activity in HKRK-B7 cells; design: expressed in transfected cells; details: for activation of PLC: about 1 million hPTH-1 receptors per cell, 1000 nM (FIG. 4)
Source text: as §3
(§4) PLC was activated by PTH agonists in the presence of 30 mM LiCl at 37° C. for 30 min after 16 hr of labeling with [^3H]myo-inositol (3uCi/ml) in serum-free medium containing 0.1% bovine serum albumin. The reactions were stopped by rapid aspiration and addition of cold 5% TCA. Water-soluble radiolabeled inositol trisphosphate (IP3) was isolated after ether extraction by ion-exchange chromatography (Guo, J., et al., Endocrinology 136(9):3884-3891 (1995)). In experiments involving HEK 293 cells, cells previously transfected with human PTHR cDNA (in the pcDNA1 expression vector HKRK) using Lipofectamine (Gibco BRL) were labeled with [^3H]myo-inositol and assayed as described above, except that total water-soluble [^3H]inositol polyphosphates were collected as a single fraction from the ion-exchange columns.

[4] = target: T2, hPTH-2 receptors (Homo sapiens, UniProt P49190); test: phospholipase C activation in HPR2-22 cells; details: 1.5 million hPTH-2 receptors per cell, 1,000 nM (FIG. 5)
T2 construct: expressed in transfected cells
Source text: as §3, §4

[5] = target: T1, hPTH-1 receptors; test: AC activation in HKRK B7 cells; design: expressed in transfected cells; details: HKRK B7 cells (large number of human PTH-1 receptors)
Source text: as §3, §2

[6] = target: T2, hPTH-2 receptors; test: cAMP measurements in clonal LLC-PK1 cells (HPR2-7); details: for cAMP responsiveness, efficacy compared with hPTH(1-34)NH2 / maximal cyclase activation (maximal response) compared with hPTH(1-34): HPR2-7 cells; for cAMP responsiveness, efficacy compared with hPTH(1-34)NH2: about 250,000 human PTH-2 receptors per cell (FIG. 3); for maximal cyclase activation (maximal response) compared with hPTH(1-34) / EC50 lower than that of hPTH(1-34): human PTH-2 receptor; for maximal cyclase activation (maximal response) compared with hPTH(1-34): very high concentrations (1 micromolar); for pEC50: clonal LLC-PK1 cells stably expressing human PTH-2 receptors, read-out: EC50 for activation of AC
Source text: as §1, §2

T2 sequence (P49190 25-550): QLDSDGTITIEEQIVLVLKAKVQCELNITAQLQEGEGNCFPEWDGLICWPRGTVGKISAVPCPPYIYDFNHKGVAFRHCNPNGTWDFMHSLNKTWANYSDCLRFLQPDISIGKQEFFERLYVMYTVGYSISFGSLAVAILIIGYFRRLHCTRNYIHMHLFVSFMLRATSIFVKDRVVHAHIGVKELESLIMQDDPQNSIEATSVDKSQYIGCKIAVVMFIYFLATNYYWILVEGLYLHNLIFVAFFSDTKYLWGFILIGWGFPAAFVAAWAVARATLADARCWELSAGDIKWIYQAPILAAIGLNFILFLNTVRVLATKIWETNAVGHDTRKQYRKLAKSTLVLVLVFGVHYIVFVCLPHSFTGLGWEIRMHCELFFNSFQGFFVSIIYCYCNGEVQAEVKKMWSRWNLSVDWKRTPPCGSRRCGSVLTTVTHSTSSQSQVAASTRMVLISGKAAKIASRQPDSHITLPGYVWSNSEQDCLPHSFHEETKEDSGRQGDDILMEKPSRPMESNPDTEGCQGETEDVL

| cyclic AMP accumulation, efficacy compared with native hPTH(1-34)NH2 [1] | activation of PLC [3] | reduction of AC activity relative to hPTH(1-34) [1] [fold] | activation of phospholipase C [4] | activation of AC compared with hPTH-(1-34) [5] | cAMP responsiveness, efficacy compared with hPTH(1-34)NH2 [6] | maximal cyclase activation (maximal response) compared with hPTH(1-34) ([6]; listed as desamino-[Gly^1]) | maximal cyclase activation (maximal response) compared with hPTH(1-34) ([6]; listed as desamino-[Gly^1]hPTH(1-34)) | pEC50 [6] | EC50 lower than that of hPTH(1-34) [6] [fold] | PLC activity as % of the hPTH(1-34) maximum ([3]; 1000 nM) | maximal cyclase activation (maximal response) compared with hPTH(1-34) ([6]; listed as desamino-[Ala^1]) | maximal cyclase activation (maximal response) compared with hPTH(1-34) ([6]; listed as desamino-[Ala^1]hPTH(1-34)) | Molecule | cyclase (cAMP) activity compared with control hPTH(1-34) [2] |
| --- | --- | --- | --- | --- | --- | --- | --- | --- | --- | --- | --- | --- | --- | --- |
| nearly the same efficacy | fill agonists | – | – | – | – | – | – | – | – | – | – | – | [Ala^1]hPTH(1-34)NH2: hPTH-(1-34) with substitution of Ala^1 for Ser^1 (AVSEIQLMHNLGKHLNSMERVEWLRKKLQDVHNF-NH2; not fully specified (residue 1); UniProt P01270 32-65, looked up, variant S1A) | comparable to that of the control peptide |
| – | no activation of PLC | 10 | greater maximal activation | approximately equipotent | enhanced efficacy | substantially greater | twice | 8.00 | 3 | – | – | – | Ac-VSEIQLMHNLGKHLNSMERVEWLRKKLQDVHNF-NH2 [desamino-[Gly^1]hPTH(1-34)NH2] | minimal activity |
| nearly the same efficacy | only a partial agonist | – | – | – | – | – | – | – | – | approximately 50% | – | – | [Gly^1]hPTH(1-34)NH2: hPTH-(1-34) with substitution of Gly^1 for Ser^1 (GVSEIQLMHNLGKHLNSMERVEWLRKKLQDVHNF-NH2; not fully specified (residue 1); UniProt P01270 32-65, looked up, variant S1G) | comparable to that of the control peptide |
| – | no activation of PLC | 10 | greater maximal activation | approximately equipotent | enhanced efficacy | – | – | 8.00 | 3 | – | substantially greater | twice | CCC(=O)N[C@H](C(=O)N[C@@H](CO)C(=O)N[C@@H](CCC(=O)O)C(=O)N[C@H](C(=O)N[C@@H](CCC(N)=O)C(=O)N[C@@H](CC(C)C)C(=O)N[C@@H](CCSC)C(=O)N[C@@H](Cc1c[nH]cn1)C(=O)N[C@@H](CC(N)=O)C(=O)N[C@@H](CC(C)C)C(=O)NCC(=O)N[C@@H](CCCCN)C(=O)N[C@@H](Cc1c[nH]cn1)C(=O)N[C@@H](CC(C)C)C(=O)N[C@@H](CC(N)=O)C(=O)N[C@@H](CO)C(=O)N[C@@H](CCSC)C(=O)N[C@@H](CCC(=O)O)C(=O)N[C@@H](CCCNC(=N)N)C(=O)N[C@H](C(=O)N[C@@H](CCC(=O)O)C(=O)N[C@@H](Cc1c[nH]c2ccccc12)C(=O)N[C@@H](CC(C)C)C(=O)N[C@@H](CCCNC(=N)N)C(=O)N[C@@H](CCCCN)C(=O)N[C@@H](CCCCN)C(=O)N[C@@H](CC(C)C)C(=O)N[C@@H](CCC(N)=O)C(=O)N[C@@H](CC(=O)O)C(=O)N[C@H](C(=O)N[C@@H](Cc1c[nH]cn1)C(=O)N[C@@H](CC(N)=O)C(=O)N[C@@H](Cc1ccccc1)C(N)=O)C(C)C)C(C)C)[C@@H](C)CC)C(C)C [desamino-[Ala^1]hPTH(1-34)NH2] (Propionyl-VSEIQLMHNLGKHLNSMERVEWLRKKLQDVHNF-NH2) | minimal activity |
